Assay results from PubChem BioAssay (NCI).
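Following 48 hours of exposure in 96-well plates, responses at five concentrations were used to interpolate endpoints linearly. TGI: concentration producing complete growth inhibition.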

Tests used:
Assay in all cases: inhibition of tumour cell growth, NCI panel, 48 h
786-0 renal = system: 786-0 renal
A498 renal = system: A498 renal
A549 NSCLC = system: A549 NSCLC
ACHN renal = system: ACHN renal
BT-549 breast = system: BT-549 breast
CAKI-1 renal = system: CAKI-1 renal
CCRF-CEM leukemia = system: CCRF-CEM leukemia
COLO 205 colon = system: COLO 205 colon
DU-145 prostate = system: DU-145 prostate
EKVX NSCLC = system: EKVX NSCLC
HCC-2998 colon = system: HCC-2998 colon
HCT-116 colon = system: HCT-116 colon
HCT-15 colon = system: HCT-15 colon
HL-60(TB) leukemia = system: HL-60(TB) leukemia
HOP-62 NSCLC = system: HOP-62 NSCLC
HOP-92 NSCLC = system: HOP-92 NSCLC
IGROV1 ovarian = system: IGROV1 ovarian
K-562 leukemia = system: K-562 leukemia
KM12 colon = system: KM12 colon
LOX IMVI melanoma = system: LOX IMVI melanoma
M14 melanoma = system: M14 melanoma
MCF7 breast = system: MCF7 breast
MDA-MB-435 = system: MDA-MB-435
MDA-N = system: MDA-N
MOLT-4 leukemia = system: MOLT-4 leukemia
NCI-H226 lung = system: NCI-H226 lung
NCI-H23 lung = system: NCI-H23 lung
NCI-H460 lung = system: NCI-H460 lung
NCI/ADR-RES ovarian = system: NCI/ADR-RES ovarian
OVCAR-3 ovarian = system: OVCAR-3 ovarian
OVCAR-5 ovarian = system: OVCAR-5 ovarian
OVCAR-8 ovarian = system: OVCAR-8 ovarian
PC-3 prostate = system: PC-3 prostate
RPMI-8226 leukemia = system: RPMI-8226 leukemia
SF-295 CNS = system: SF-295 CNS
SF-539 CNS = system: SF-539 CNS
SK-MEL-2 melanoma = system: SK-MEL-2 melanoma
SK-MEL-28 melanoma = system: SK-MEL-28 melanoma
SK-MEL-5 melanoma = system: SK-MEL-5 melanoma
SK-OV-3 ovarian = system: SK-OV-3 ovarian
SN12C renal = system: SN12C renal
SNB-19 CNS = system: SNB-19 CNS
SNB-75 CNS = system: SNB-75 CNS
SR leukemia = system: SR leukemia
SW-620 colon = system: SW-620 colon
T-47D breast = system: T-47D breast
U251 CNS = system: U251 CNS
UACC-257 melanoma = system: UACC-257 melanoma
UACC-62 melanoma = system: UACC-62 melanoma
UO-31 renal = system: UO-31 renal

Measured: TGI

N#Cc1c(N2CCOCC2)ncn(-c2ccccc2)c1=O
> 100 µM: all assays above
